Measured values taken from PubChem BioAssay AID2423 (Broad Institute, 2010).
Records with an inconclusive call do not appear. The source made the active and inactive calls. The rule behind the calls is not given here.

Test system: C. albicans CaCi-8 + fluconazole, Alamar Blue growth, 48 h
Test: resistant C. albicans growth inhibition with fluconazole, dose response, CaCi-8 strain, Alamar Blue fluorescence (AID 2423)

In the case of `O=C(O)c1ccccc1-c1ccccc1C(=O)Nc1cccc(-c2nc3ccccc3o2)c1`, the EC50 is reported as 2240 nM.

For `CCCC(=O)NC(=S)NNC(=O)c1ccc([N+](=O)[O-])cc1`, the EC50 was 4900 nM.

In the case of `CCOCCCNC(=O)c1ccc(N(C)S(=O)(=O)c2ccc(OC)cc2)cc1`, the EC50 is reported as > 16000 nM (inactive).

`O=C(COS(=O)c1ccccc1)Nc1cc(Cl)ccc1N1CCOCC1` (stereo unspecified) showed an EC50 of 3110 nM.

With `CCCCCCCNC(=O)COc1ccc2c(c1)C(=O)CC(C)(C)O2` the EC50 was 1100 nM.

For `Cc1ccc(C)c(-c2nnc(NC(=O)c3ccco3)o2)c1`, the EC50 was 957 nM.

`COc1cccc(N=Nc2ccc3cccnc3c2O)c1` showed an EC50 of 430 nM.

`O=C(Nc1nnc(COc2ccc(F)cc2)s1)c1ccco1` showed an EC50 of 7770 nM.

With `CCOC(=O)CNC(=O)c1sc2ncnc(N3CCc4ccccc4C3)c2c1C` the EC50 was 4560 nM.

Molecule `CCOc1cccc(-c2cc(-c3n[nH]c(=S)n3CC)c3ccccc3n2)c1` has an EC50 of 4000 nM.

With `NNC(=O)c1cc(-c2cccs2)nc2ccccc12` the EC50 was > 15000 nM (inactive).

`O=C(CC(=O)c1cccc([N+](=O)[O-])c1)Nc1ccccc1Cl` showed an EC50 of 954 nM.

In the case of `O=C(N/N=C/c1ccc[nH]1)c1cc2ccccc2cc1O`, the EC50 is reported as 3940 nM.

`COc1ccc(NS(=O)(=O)c2ccc3ccccc3c2)c2ncccc12` was tested, and the EC50 was 3790 nM.

With `CCCCCc1ccc(OCCCC[n+]2ccccc2)c(CCCCC)c1` the EC50 was > 16000 nM (inactive).

`C[N+]1(CC(=O)OC2CCCCCCCCCCC2)CCCC1` gave an EC50 of 4940 nM.

Work on `O=C(ONC1=NCCCCC1)c1cccc([N+](=O)[O-])c1` yielded an EC50 of 969 nM.

`Cc1cc(Br)ccc1OCC(=O)NNC(=O)C(=O)Nc1ccccc1` gave an EC50 of 718 nM.

`Cc1ccc2nc(-c3ccc(NC(=S)NC4CC(C)(C)NC(C)(C)C4)cc3)sc2c1` showed an EC50 of 1900 nM.

Work on `Oc1c(CN2CCN(c3ccccc3)CC2)cc(Br)c2cccnc12` yielded an EC50 of 1230 nM.

`S=c1[nH]nc(-c2ccccc2)n1/N=C/c1cccs1` gave an EC50 of 6130 nM.

In the case of `C/C(=C\C(=O)OCCCCCCCCC(=O)O)C[C@@H]1OC[C@H](C[C@@H]2O[C@H]2[C@@H](C)[C@H](C)O)[C@@H](O)[C@H]1O`, the EC50 is reported as > 15000 nM (inactive).

`Cn1c(/C=C/c2cccc([N+](=O)[O-])c2)c([N+](=O)[O-])c(=O)n(C)c1=O` gave an EC50 of 2530 nM.

In the case of `Oc1cccc2ccc(Nc3ccccn3)nc12`, the EC50 is reported as 2350 nM.

`CCn1c(C)nc2cc(C(=O)N/N=C/c3cccc(OC)c3O)ccc21` was tested, and the EC50 was > 16000 nM (inactive).

`COc1ccc(OC)c(C2C(C(=O)c3cc4ccccc4o3)=C(O)C(=O)N2c2cc(C)on2)c1` (stereo unspecified) gave an EC50 of under 120 nM.

With `CC(C)(C)c1ccc(C(=O)CC(=O)c2cc(Cl)ccc2O)cc1` the EC50 was 4770 nM.

Work on `Cc1cc(NC(=O)c2c(F)cccc2Cl)n(-c2nc3ccccc3[nH]2)n1` yielded an EC50 of 7390 nM.

`O=[N+]([O-])c1c(C(Cl)Cl)nn(-c2ccc(Cl)cc2)c1N1CCCCC1` showed an EC50 of 441 nM.

For `CCOC(=O)c1ccc(NC(=O)Nc2ccn(C)n2)cc1`, the EC50 was 1510 nM.

In the case of `CCC(=O)NC(c1ccc(OC)cc1)c1cc(Cl)c2cccnc2c1O` (stereo unspecified), the EC50 is reported as 976 nM.

Molecule `CCCOc1ccc(C(=O)NNC(=S)NC(=O)CC)cc1` has an EC50 of 937 nM.

Molecule `CC(=O)N1CCN(c2ccc(NC(=O)c3ccc(C(C)(C)C)cc3)cc2)CC1` has an EC50 of 11900 nM.

`O=C(NNC(=O)c1cc2ccccc2cc1O)c1cccs1` was tested, and the EC50 was > 15000 nM (inactive).

Molecule `O=C(Oc1c(CN2CCOCC2)cc(Cl)c2cccnc12)c1ccccc1` has an EC50 of 2650 nM.

`O=C(Cc1cnn(-c2ccccc2)c1)c1ccc(O)c(O)c1O` was tested, and the EC50 was 8400 nM.

For `O=C(Cc1ccc([N+](=O)[O-])cc1)NNC(=O)c1ccc2c(c1)OCO2`, the EC50 was > 15000 nM (inactive).

`O=c1cc(CSc2ccc(Cl)cc2)nc(-c2ccccn2)[nH]1` gave an EC50 of 531 nM.

Work on `Cc1[nH]n(-c2ccccc2)c(=O)c1/C=N/Nc1nncc(-c2ccccc2)n1` yielded an EC50 of 2670 nM.

Molecule `O=C(NNC1=C(C(=O)C(F)(F)F)CCC1)c1ccc(Br)cc1` has an EC50 of 790 nM.

In the case of `Cn1c(N/N=C/c2c[nH]c3ccccc23)nc2ccccc21`, the EC50 is reported as 6030 nM.

With `CC1CCN(C(=O)Cn2c3ccccc3c3nc4n(c(=O)c32)CCS4)CC1` the EC50 was > 16000 nM (inactive).

In the case of `Cc1c(Cl)c([N+](=O)[O-])nn1Cc1ccc(C(=O)N/N=C\c2cc(Cl)ccc2O)o1`, the EC50 is reported as 1030 nM.

Work on `Cc1ccc(NC(=O)c2ccc([N+](=O)[O-])o2)cc1C` yielded an EC50 of 1130 nM.

In the case of `COc1ccc(OC)c(NC(=O)c2c3c(nc4ccccc24)CCC3)c1`, the EC50 is reported as 6600 nM.

`CC1CCC(C(=O)c2c(O)c3ccccc3oc2=O)CC1` (stereo unspecified) gave an EC50 of 2900 nM.

`COc1cccc(/C=N/Nc2cc(-n3nc(C)cc3-c3ccccc3)ncn2)c1O` was tested, and the EC50 was 662 nM.

In the case of `O=c1[nH]c(-c2ccccn2)nc(C(F)(F)F)c1Br`, the EC50 is reported as 495 nM.

With `O=C(Nc1nnc(SCc2ccc(Cl)cc2)s1)c1cnccn1` the EC50 was 1550 nM.

In the case of `NNC(=O)c1cc(O)c(O)c(O)c1`, the EC50 is reported as 8640 nM.

For `CCN(CC)c1nc(-c2ccccn2)nc(-c2ccccc2)c1C#N`, the EC50 was 4190 nM.

With `Cn1c(/C=N/Nc2nc3ccccc3[nH]2)nc2ccccc21` the EC50 was > 16000 nM (inactive).

With `Cc1cc(N2C(=O)C(O)=C(C(=O)c3cc4ccccc4o3)C2c2cccs2)no1` (stereo unspecified) the EC50 was 4080 nM.

In the case of `Cc1noc2ncnc(Sc3ccc(Cl)cc3)c12`, the EC50 is reported as 2930 nM.

In the case of `N#Cc1cc(C#N)c(N2CCN(c3cccc(Cl)n3)CC2)nc1N`, the EC50 is reported as 1580 nM.

`Cc1ccc(-c2nnn(CC(=O)N(Cc3ccco3)C(C(=O)NC(C)(C)C)c3ccncc3)n2)o1` (stereo unspecified) was tested, and the EC50 was > 15000 nM (inactive).
